Assay results: ChEMBL document CHEMBL3286093 (J Med Chem, 2014)
Converted amounts (≈) assume the structure as drawn. The source made the active and inactive calls. No cut-off for these calls is given here.

Legend:
in vitro = details: human, HepG2 cells
Description: Selectivity ratio TC50 for human HepG2 cells to EC50 for Trypanosoma brucei brucei Lister 427

[1] = system: Trypanosoma brucei brucei; experiment: microbe, parasite or virus in culture; details: Lister 427, 70 h
Description: Antitrypanosomal activity against bloodstream Trypanosoma brucei brucei Lister 427 after 70 hrs by resazurin assay

[2] = (§1) Cytotoxicity against human HepG2 cells after 48 hrs by Celltiter-Glo assay; assay type: cell-based; details: HepG2 cells, read-out: TC50
[3] = system: Trypanosoma brucei brucei; experiment: Decrease in phosphotidyl inositol phosphate level in Trypanosoma brucei brucei Lister 427 at 200 nM after 12 hrs by ES-MS analysis; assay type: functional, organism-based
[4] = Lipophilicity, log D of the compound at pH 7.4 by HPLC analysis; assay type: physicochemical; details: buffer
[5] = biological target: Phosphatidylinositol 4,5-bisphosphate 3-kinase catalytic subunit beta isoform (Homo sapiens, UniProt P42338); experiment: Inhibition of human PI3K-beta assessed as inhibition of […] after 1 hr by TR-FRET analysis
[6] = biological target: Phosphatidylinositol 4,5-bisphosphate 3-kinase catalytic subunit gamma isoform (Homo sapiens, UniProt P48736); experiment: Inhibition of human PI3K-gamma assessed as inhibition of […] after 1 hr by TR-FRET analysis
[7] = system: Trypanosoma brucei brucei; experiment: Effect on phosphatidylcholine level in Trypanosoma brucei brucei Lister 427 at 200 nM after 12 hrs by ES-MS analysis; assay type: functional, organism-based
[8] = system: Trypanosoma brucei brucei; experiment: Effect on sphingomylein level in Trypanosoma brucei brucei Lister 427 at 200 nM after 12 hrs by ES-MS analysis; assay type: functional, organism-based
[9] = Apparent permeability across artificial membrane after 3 hrs by HPLC analysis; assay type: physicochemical
[10] = system: Trypanosoma brucei brucei; experiment: Effect on phosphotidyl inositol level in Trypanosoma brucei brucei Lister 427 at 200 nM after 12 hrs by ES-MS analysis; assay type: functional, organism-based
[11] = biological target: Serine/threonine-protein kinase mTOR (Homo sapiens, UniProt P42345); experiment: Inhibition of human recombinant mTOR assessed as inhibition of 4EBP1 phosphorylation after 30 mins by TR-FRET analysis
[12] = system: Trypanosoma brucei brucei; experiment: Antitrypanosomal activity against bloodstream Trypanosoma brucei brucei Lister 427 assessed as decrease in number of cell at G1 phase after 18 hrs by PI staining based flow cytometer; assay type: functional, organism-based
[13] = system: Trypanosoma brucei brucei; experiment: Inhibition of receptor-mediated endocytosis in Trypanosoma brucei brucei Lister 427 assessed as decrease in transferrin uptake at 2 X EC50 after 18 hrs; assay type: functional, organism-based
[14] = biological target: T1, Phosphatidylinositol 4,5-bisphosphate 3-kinase catalytic subunit delta isoform (Homo sapiens, UniProt O00329); experiment: Inhibition of human PI3K-delta assessed as inhibition of […] after 1 hr by TR-FRET analysis
T1 sequence (O00329 whole entry): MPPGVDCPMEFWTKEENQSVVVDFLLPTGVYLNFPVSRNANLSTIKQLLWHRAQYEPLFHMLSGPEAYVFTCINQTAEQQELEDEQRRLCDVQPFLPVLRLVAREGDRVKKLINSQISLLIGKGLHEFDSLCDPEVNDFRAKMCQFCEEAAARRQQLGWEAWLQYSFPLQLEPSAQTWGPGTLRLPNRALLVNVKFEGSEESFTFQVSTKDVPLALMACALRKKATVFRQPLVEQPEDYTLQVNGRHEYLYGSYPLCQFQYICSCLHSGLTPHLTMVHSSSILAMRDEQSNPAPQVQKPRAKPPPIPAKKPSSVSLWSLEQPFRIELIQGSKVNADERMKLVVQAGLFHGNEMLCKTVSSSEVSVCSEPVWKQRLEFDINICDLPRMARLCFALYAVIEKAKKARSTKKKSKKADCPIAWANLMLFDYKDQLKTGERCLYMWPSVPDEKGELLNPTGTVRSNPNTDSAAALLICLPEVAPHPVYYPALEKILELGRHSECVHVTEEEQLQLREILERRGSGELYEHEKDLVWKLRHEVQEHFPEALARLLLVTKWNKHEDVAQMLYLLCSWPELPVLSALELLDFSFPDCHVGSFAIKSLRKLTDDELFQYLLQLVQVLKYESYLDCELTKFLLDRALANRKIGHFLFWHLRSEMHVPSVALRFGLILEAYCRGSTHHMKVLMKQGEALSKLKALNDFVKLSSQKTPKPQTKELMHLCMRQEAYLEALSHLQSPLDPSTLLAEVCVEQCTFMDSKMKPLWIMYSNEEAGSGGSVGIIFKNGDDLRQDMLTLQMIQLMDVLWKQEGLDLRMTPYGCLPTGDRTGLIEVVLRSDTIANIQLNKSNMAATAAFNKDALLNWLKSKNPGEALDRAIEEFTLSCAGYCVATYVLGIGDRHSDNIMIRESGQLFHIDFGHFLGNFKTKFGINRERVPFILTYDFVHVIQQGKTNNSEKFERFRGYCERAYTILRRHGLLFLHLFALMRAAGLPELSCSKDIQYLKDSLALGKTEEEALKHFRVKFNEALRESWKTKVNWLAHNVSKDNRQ

[15] = biological target: Phosphatidylinositol 4,5-bisphosphate 3-kinase catalytic subunit alpha isoform (Homo sapiens, UniProt P42336); experiment: Inhibition of human PI3K-alpha assessed as inhibition of […] after 1 hr by TR-FRET analysis
[16] = Solubility of compound in phosphate buffer at pH 7.4 after 1 hr; assay type: physicochemical
HepG2 = experiment: as §1; assay type: cell-based; details: hepg2, 48 h

Phosphatidylinositol 4,5-bisphosphate 3-kinase catalytic subunit alpha isoform, sequence (P42336 whole entry, canonical isoform): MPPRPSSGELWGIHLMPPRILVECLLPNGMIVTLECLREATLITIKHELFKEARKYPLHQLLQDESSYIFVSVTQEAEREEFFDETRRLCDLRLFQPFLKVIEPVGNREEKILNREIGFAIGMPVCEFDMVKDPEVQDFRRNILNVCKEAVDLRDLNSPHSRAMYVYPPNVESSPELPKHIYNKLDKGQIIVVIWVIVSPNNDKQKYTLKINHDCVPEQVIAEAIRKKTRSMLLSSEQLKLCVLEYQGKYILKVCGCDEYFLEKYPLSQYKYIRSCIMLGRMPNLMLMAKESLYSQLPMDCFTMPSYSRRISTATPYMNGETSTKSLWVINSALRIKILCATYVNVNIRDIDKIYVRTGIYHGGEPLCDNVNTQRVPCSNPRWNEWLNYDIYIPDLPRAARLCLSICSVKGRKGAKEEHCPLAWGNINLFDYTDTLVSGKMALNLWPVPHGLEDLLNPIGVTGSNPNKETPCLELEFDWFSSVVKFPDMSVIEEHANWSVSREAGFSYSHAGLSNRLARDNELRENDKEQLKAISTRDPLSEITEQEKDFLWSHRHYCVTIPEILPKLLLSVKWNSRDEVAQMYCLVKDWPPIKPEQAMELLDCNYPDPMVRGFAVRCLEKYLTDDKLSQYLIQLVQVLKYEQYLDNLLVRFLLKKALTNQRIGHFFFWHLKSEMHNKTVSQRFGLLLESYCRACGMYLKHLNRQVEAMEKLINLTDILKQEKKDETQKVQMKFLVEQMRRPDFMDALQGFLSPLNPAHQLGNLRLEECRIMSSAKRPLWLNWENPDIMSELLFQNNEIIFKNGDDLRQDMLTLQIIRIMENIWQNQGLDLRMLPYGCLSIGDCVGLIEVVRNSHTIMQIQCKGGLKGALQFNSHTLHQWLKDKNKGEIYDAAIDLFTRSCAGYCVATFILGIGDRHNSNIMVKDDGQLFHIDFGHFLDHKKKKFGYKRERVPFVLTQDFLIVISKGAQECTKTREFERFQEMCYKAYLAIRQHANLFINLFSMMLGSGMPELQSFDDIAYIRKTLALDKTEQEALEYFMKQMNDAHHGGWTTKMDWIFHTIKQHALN
Phosphatidylinositol 4,5-bisphosphate 3-kinase catalytic subunit beta isoform, sequence (P42338 whole entry, canonical isoform): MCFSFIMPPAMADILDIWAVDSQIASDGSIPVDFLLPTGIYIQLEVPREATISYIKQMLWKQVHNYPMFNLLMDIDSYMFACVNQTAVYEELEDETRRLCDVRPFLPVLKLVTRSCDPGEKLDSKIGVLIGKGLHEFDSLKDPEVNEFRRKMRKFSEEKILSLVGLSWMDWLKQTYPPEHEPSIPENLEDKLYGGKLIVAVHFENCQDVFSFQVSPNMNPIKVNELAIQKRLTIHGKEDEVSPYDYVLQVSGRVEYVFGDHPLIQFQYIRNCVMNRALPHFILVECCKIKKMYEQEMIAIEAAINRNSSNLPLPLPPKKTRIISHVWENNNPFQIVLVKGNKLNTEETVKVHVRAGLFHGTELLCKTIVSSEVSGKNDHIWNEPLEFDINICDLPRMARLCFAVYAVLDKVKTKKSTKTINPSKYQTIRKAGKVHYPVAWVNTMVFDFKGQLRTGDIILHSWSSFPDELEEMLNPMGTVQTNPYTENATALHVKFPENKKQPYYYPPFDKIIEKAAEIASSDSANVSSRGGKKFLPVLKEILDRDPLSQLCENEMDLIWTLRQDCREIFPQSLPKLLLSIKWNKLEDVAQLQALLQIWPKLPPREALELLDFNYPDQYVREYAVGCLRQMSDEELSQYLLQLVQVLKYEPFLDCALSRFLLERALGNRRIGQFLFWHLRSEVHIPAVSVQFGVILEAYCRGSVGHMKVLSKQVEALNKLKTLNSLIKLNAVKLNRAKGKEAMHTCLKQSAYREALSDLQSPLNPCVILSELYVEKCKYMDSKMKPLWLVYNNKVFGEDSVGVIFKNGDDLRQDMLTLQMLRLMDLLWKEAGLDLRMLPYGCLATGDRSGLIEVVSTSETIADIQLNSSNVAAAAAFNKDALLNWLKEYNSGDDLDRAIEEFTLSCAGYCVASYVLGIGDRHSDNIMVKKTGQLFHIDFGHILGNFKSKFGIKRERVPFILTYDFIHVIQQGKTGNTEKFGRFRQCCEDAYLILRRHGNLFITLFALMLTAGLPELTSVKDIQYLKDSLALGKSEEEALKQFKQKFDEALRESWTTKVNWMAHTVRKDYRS
Phosphatidylinositol 4,5-bisphosphate 3-kinase catalytic subunit gamma isoform, sequence (P48736 whole entry, canonical isoform): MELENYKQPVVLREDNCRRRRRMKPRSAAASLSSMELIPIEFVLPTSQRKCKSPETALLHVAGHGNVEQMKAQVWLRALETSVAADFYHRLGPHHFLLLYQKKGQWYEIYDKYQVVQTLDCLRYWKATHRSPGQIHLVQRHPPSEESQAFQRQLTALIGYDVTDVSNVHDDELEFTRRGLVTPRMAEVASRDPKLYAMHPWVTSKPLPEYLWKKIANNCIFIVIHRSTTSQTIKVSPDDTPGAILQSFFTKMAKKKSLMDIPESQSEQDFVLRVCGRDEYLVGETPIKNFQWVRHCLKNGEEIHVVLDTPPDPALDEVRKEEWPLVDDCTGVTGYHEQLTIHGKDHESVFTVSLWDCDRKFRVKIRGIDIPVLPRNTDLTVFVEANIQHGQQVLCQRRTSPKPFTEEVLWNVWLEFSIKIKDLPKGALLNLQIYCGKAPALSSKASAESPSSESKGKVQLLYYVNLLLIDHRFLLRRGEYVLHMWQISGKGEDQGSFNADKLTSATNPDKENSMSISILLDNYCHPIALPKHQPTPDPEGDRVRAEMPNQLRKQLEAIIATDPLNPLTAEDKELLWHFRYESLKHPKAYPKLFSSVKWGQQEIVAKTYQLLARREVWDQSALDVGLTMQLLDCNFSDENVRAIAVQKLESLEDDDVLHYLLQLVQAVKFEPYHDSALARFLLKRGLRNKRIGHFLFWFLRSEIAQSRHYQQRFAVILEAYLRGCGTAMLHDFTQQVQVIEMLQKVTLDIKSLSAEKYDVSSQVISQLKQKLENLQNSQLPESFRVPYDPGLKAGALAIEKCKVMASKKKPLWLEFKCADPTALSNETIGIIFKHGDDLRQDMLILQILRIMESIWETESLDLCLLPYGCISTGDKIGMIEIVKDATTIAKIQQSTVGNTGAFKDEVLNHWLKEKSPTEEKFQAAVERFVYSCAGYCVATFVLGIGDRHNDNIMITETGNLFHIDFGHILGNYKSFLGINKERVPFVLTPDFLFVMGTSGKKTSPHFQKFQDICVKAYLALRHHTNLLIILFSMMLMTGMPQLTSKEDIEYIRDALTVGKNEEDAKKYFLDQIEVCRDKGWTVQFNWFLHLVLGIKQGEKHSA

Row | Compound | selectivity ratio (in vitro) | EC50 [1] [nM] | CC50 at 48 h [2] [nM] | further results
1 | N#Cc1ccc(-n2c(=O)[nH]c3cnc4ccc(-c5cnc6ccccc6c5)cc4c32)cc1 | > 270 | 184 | > 50000 | 
2 | Cn1cc(-c2ccc3ncc4c(c3c2)n(-c2ccc(C(C)(C)C#N)cc2)c(=O)n4C)cn1 |  | 51 |  | inhibition [3]: Active; logD [4]: 5.3; IC50 [5]: 7940 nM; IC50 [6]: 126 nM; Activity [7]: inactive; Activity [8]: inactive; permeability [9]: ND(Insoluble); Activity [10]: Active; IC50 [11]: 1170 nM; inhibition [12]: Active; inhibition [13]: inactive; IC50 [14]: 794 nM; IC50 [15]: 398 nM
3 | CN(C)c1ccc(-n2c(=O)[nH]c3cnc4ccccc4c32)cc1 | 3 | 6240 | 19000 | 
4 | Cn1c(=O)n(-c2ccc(C(C)(C)C#N)cc2)c2c3cc(-c4cc5ccccc5s4)ccc3ncc21 | > 460 | 54 | > 25000 | 
5 | N#CCc1ccc(-n2c(=O)[nH]c3cnc4ccc(-c5ccncc5)cc4c32)cc1 | > 250 | 199 | > 50000 | 
6 | Cc1ccc2ncc3c(c2c1)n(-c1ccc(C(C)(C)C#N)cc1)c(=O)n3C | > 10 | 2020 | > 20000 | 
7 | Cc1ccc(-n2c(=O)n(C)c3cnc4ccc(-c5ccncc5)cc4c32)cc1 | 24 | 202 | 4780 | inhibition [3]: Active; logD [4]: 4.95; IC50 [5]: 31600 nM; IC50 [6]: 251 nM; Activity [7]: inactive; Activity [8]: inactive; permeability [9]: 47 ×10⁻⁶ cm/s; Activity [10]: Active; IC50 [11]: 468 nM; inhibition [12]: inactive; inhibition [13]: Active; IC50 [14]: 2510 nM; IC50 [15]: 631 nM; solubility kinetic at 1 h [16]: 17 µM (≈ 6.23 µg/mL)
8 | CN(C)c1ccc(-n2c(=O)n(C)c3cnc4ccc(-c5ccncc5)cc4c32)cc1 | 28 | 82 | 2340 | 
9 | Cn1c(=O)n(-c2ccc(C(C)(C)C#N)cc2)c2c3ccccc3ncc21 | > 80 | 624 | > 50000 | logD [4]: 4.69; IC50 [5]: > 30000 nM; IC50 [6]: 2000 nM; permeability [9]: 57 ×10⁻⁶ cm/s; IC50 [11]: 1620 nM; IC50 [14]: 15800 nM; IC50 [15]: 3980 nM
10 | Cn1c(=O)n(-c2ccc(C(F)(F)F)cc2)c2c3cc(-c4cnc5ccccc5c4)ccc3ncc21 | > 240 | 103 | > 25000 | 
11 | Cn1c(=O)n(-c2ccc(C#N)cc2)c2c3cc(-c4cnc5ccccc5c4)ccc3ncc21 | > 540 | 91 | > 50000 | 
12 | CN(C)c1ccc(-n2c(=O)[nH]c3cnc4ccc(-c5ccncc5)cc4c32)cc1 | > 1100 | 42 | > 50000 | 
13 | Cn1c(=O)n(-c2ccc(CC#N)cc2)c2c3cc(-c4ccncc4)ccc3ncc21 | > 560 | 88 | > 50000 | 
14 | Cn1c(=O)n(-c2ccc(N3CCOCC3)cc2)c2c3cc(-c4ccncc4)ccc3ncc21 | > 24 | 316 | > 7600 | 
15 | Cc1ccc2ncc3c(c2c1)n(-c1ccccc1)c(=O)n3C | > 39 | 1300 | > 50000 | 
16 | Cn1c(=O)n(-c2ccccc2)c2c3cc(-c4cnc5ccccc5c4)ccc3ncc21 | > 1000 | 24 | > 25000 | 
17 | CN1CCN(Cc2ccc(-n3c(=O)n(C)c4cnc5ccc(-c6ccncc6)cc5c43)cc2)CC1 | > 2 | 3350 | > 7600 | 

Row | Compound | selectivity ratio (in vitro) | EC50 [1] [nM] | CC50 at 48 h [2] [nM] | further results
18 | Cn1c(=O)n(-c2ccc(C(C)(C)C#N)cc2)c2c3cc(-c4ccc(C(F)(F)F)nc4)ccc3ncc21 | > 470 | 53 | > 25000 | 
19 | CC(=O)Nc1ccc2ncc3c(c2c1)n(-c1ccc(C(C)(C)C#N)cc1)c(=O)n3C | > 5 | 9020 | > 50000 | 
20 | Cn1c(=O)n(-c2ccc(C#N)cc2)c2c3cc(-c4ccncc4)ccc3ncc21 |  | 72 |  | TC50 (HepG2): ND(Insoluble)
21 | Cc1ccc(-n2c(=O)n(C)c3cnc4ccc(-c5ccc(C(=O)O)cc5)cc4c32)cc1 | > 5 | 9890 | > 50000 | 
22 | Cn1c(=O)n(-c2ccc(C(C)(C)C#N)cc2)c2c3cc(-c4cnc5ccccc5c4)ccc3ncc21 [DACTOLISIB] |  |  |  | inhibition [3]: Active; logD [4]: 6.44; Activity [7]: inactive; Activity [8]: inactive; permeability [9]: ND(Insoluble); Activity [10]: Active; TC50 (HepG2): ND(Insoluble); inhibition [12]: inactive; inhibition [13]: Active; solubility kinetic at 1 h [16]: 19 µM (≈ 8.92 µg/mL)
23 | Cn1c(=O)n(-c2ccc(C(C)(C)C#N)cc2)c2c3cc(N)ccc3ncc21 | > 4 | 10600 | > 50000 | 
24 | Cn1c(=O)n(C)c2c3cc(-c4ccncc4)ccc3ncc21 | > 6 | 3270 | > 20000 | 
25 | Cn1c(=O)n(-c2ccc(C(C)(C)C#N)cc2)c2c3cc(-c4cccnc4)ccc3ncc21 | 36 | 16 | 575 | 
26 | Cn1c(=O)n(-c2ccc(C(C)(C)C#N)cc2)c2c3cc(C#Cc4cccnc4)ccc3ncc21 | 17.5 | 8 | 140 | 
27 | COc1ccc(-n2c(=O)n(C)c3cnc4ccc(-c5ccncc5)cc4c32)cc1 | 67 | 166 | 11200 | inhibition [3]: Active; logD [4]: 5.32; IC50 [5]: 7940 nM; IC50 [6]: 316 nM; Activity [7]: inactive; Activity [8]: inactive; permeability [9]: 86 ×10⁻⁶ cm/s; Activity [10]: Active; IC50 [11]: 380 nM; inhibition [12]: inactive; inhibition [13]: Active; IC50 [14]: 2510 nM; IC50 [15]: 501 nM; solubility kinetic at 1 h [16]: 22 µM (≈ 8.41 µg/mL)
28 | Cn1c(=O)n(-c2ccccc2)c2c3ccccc3ncc21 | > 3 | 18500 | > 50000 | 
29 | Cn1c(=O)n(-c2ccc(C(C)(C)C#N)cc2)c2c3cc(N4CCOCC4)ccc3ncc21 | > 24 | 2040 | > 50000 | 
30 | Cn1c(=O)n(-c2ccc(C(C)(C)C#N)cc2)c2c3cc(-c4ccccc4)ccc3ncc21 | 11 | 159 | 1820 | 
31 | Cn1c(=O)n(-c2ccc(C(C)(C)C#N)cc2)c2c3cc(-c4ccncc4)ccc3ncc21 | 25 | 136 | 3430 | 
32 | CN(C)c1ccc(-n2c(=O)n(C)c3cnc4ccccc4c32)cc1 | 0.3 | 9330 | 3000 | 
33 | CN1CCN(c2ccc3ncc4c(c3c2)n(-c2ccc(C(C)(C)C#N)cc2)c(=O)n4C)CC1 |  |  | > 50000 | 
